# Measurements: US6369111B1, “Substituted oximes” (priority 1998, dated 2002)
# Assay: logP determination by HPLC (EEC Directive 79/831 Annex V. A8)
# Assay type: physicochemical
# Method: The logP values were determined in accordance with EEC Directive 79/831 Annex V. A8 by HPLC (gradient method, acetonitrile/0.1% aqueous phosphoric acid (s) or gradient method, acetonitrile/0.1% water (n))
row,SMILES,chromatographic logP
1,"CO/N=C(SC)/C(C)=N/OCc1ccccc1/C(=C\C(=O)OC)OC [Example 1, methyl 3-methoxy-3-[2-(2-methoxyamino-1-methyl-2-methylthio-ethylideneaminooxymethyl)-phenyl]-acrylate]",3.5
2,"CO/N=C(/C(C)=N/OCc1ccccc1/C(=C\C(=O)OC)OC)S(C)(=O)=O [Example 2, methyl 3-[2-(2-methanesulfonyl-2-methoxyimino-1-methyl-ethylideneaminooxymethyl)-phenyl]-3-methoxy-acrylate]",2.79
3,"CO/N=C(OC)/C(C)=N/OCc1ccccc1/C(=C\C(=O)OC)OC [Example 3, methyl 3-methoxy-3-[2-(2-methoxy-2-methoxyimino-1-methyl-ethylideneaminooxymethyl)-phenyl]-acrylate]",3.05
